Values of other authors in patent US20220280449A1, “CURCUMINOID COMPOSITIONS” (priority 2018, published 2022).

System: Caco-2 cells

predicted absorption in humans (from correlation of Caco-2 Papp with human absorption): 0-20%
apparent permeability coefficient (Papp value) (in vitro human intestinal cell model (Caco-2)): 0.1 ×10⁻⁶ cm/s
SMILES: COc1cc(/C=C/C(=O)CC(=O)/C=C/c2ccc(O)c(OC)c2)ccc1O [curcumin]
